Entries after “also recorded” stand apart in the source; their conditions may differ.
Assays:
[1] = tested on: M. mazei MVK; test: Inhibition of MVK by diphosphomevalonate and IP, two enzyme system; assay type: biochemical, Methanosarcina mazei; conditions: 1 μM MVK; for Inhibition of M. mazei MVK by isopentenyl monophosphate: 100 μM
From the text: This experiment investigates the inhibitory effect of diphosphomevalonate and […] (IP) on MVK activity using MVK enzymes from S. pneumoniae, yeast, and M. mazei, respectively. […] All chemical reagents were purchased from Sigma unless otherwise specified.

[2] = Flammability modeling (CAFT) and testing of isoprene; assay type: physicochemical
From the text: Thus, computer modeling and experimental testing were used to determine the flammability limits of isoprene (such as isoprene in the presence of O2, N2, CO2, or any combination of two or more of the foregoing gases) in order to ensure process safety. The flammability envelope is characterized by the lower flammability limit (LFL), the upper flammability limit (UFL), the limiting oxygen concentration (LOC), and the limiting temperature. For a system to be flammable, a minimum amount of fuel (such as isoprene) must be in the presence of a minimum amount of oxidant, typically oxygen. The LFL is the minimum amount of isoprene that must be present to sustain burning, while the UFL is the maximum amount of isoprene that can be present. Above this limit, the mixture is fuel rich and the fraction of oxygen is too low to have a flammable mixture. The LOC indicates the minimum fraction of oxygen that must also be present to have a flammable mixture. […]
Calculated adiabatic flame temperatures (CAFT) along with a selected limit flame temperature for combustion propagation were used to determine the flammability envelope for isoprene. […]
The igniter was comprised of a 1.5 ohm nicrome coil and an AC voltage source on a timer circuit. Using an oscilloscope, it was determined that 34.4 VAC were delivered to the igniter for 3.2 seconds. […]

[3] = about 1 atmosphere and about 60° F.; cited from earlier work
[4] = target: T1, yeast MVK (Saccharomyces cerevisiae, UniProt P07277); test: Inhibition of MVK by diphosphomevalonate, two enzyme system (MVK plus PMK); assay type: biochemical; conditions: 1 μM MVK, 1 μM PMK, diphosphomevalonate formed in situ
T1 construct: 10xHis tag with factor Xa site (pET-16b leader); made in house; host or cells: E. coli BL21(DE3) pLysS
T1 sequence (P07277 1-443): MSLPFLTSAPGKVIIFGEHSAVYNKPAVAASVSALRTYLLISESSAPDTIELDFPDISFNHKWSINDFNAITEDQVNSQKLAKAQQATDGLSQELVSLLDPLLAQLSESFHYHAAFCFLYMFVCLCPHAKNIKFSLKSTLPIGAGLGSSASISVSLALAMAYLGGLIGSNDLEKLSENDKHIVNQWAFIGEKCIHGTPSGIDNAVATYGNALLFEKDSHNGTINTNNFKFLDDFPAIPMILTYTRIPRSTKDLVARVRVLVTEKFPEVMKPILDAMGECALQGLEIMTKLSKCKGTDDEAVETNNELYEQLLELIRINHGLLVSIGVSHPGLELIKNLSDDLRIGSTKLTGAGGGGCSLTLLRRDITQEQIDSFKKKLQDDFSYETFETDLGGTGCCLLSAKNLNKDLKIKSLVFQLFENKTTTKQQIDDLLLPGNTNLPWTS
Experimental: (§1) This experiment investigates the inhibitory effect of diphosphomevalonate and […] (IP) on MVK activity using MVK enzymes from S. pneumoniae, yeast, and M. mazei, respectively. […] All reactions were performed in 96-well plates and were monitored by absorbance at 386 nm on a Molecular Devices Spectramax 190 UV-Vis 96-well spectrophotometer. […] All chemical reagents were purchased from Sigma unless otherwise specified. Yeast and M. mazei MVK were obtained as described above and S. pneumoniae MVK and yeast phosphomevalonate kinase (PMK) were obtained as previously described (Andreassi et al., Biochemistry, 43:16461-66, 2004) from pDW02 in pET200D MVK (FIG. 142).

[5] = tested on: S. pneumoniae MVK; test: as above; assay type: biochemical, Streptococcus pneumoniae; conditions: 1 μM MVK, 1 μM PMK, diphosphomevalonate formed in situ
Experimental: as §1

[6] = target: human MVK polypeptide (Homo sapiens, UniProt Q03426); conditions: reported; cited from earlier work
human MVK polypeptide, sequence (Q03426 whole entry): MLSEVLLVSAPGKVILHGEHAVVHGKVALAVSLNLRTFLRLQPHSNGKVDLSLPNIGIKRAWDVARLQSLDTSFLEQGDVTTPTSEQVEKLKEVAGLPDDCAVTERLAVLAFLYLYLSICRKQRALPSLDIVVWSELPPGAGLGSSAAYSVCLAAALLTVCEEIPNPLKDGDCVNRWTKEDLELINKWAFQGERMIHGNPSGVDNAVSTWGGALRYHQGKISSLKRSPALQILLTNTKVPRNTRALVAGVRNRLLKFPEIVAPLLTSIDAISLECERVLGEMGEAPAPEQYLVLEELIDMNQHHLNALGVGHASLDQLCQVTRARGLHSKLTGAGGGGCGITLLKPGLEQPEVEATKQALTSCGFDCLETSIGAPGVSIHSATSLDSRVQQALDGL

[7] = target: T2, yeast mevalonate kinase (Saccharomyces cerevisiae, UniProt P07277); assay type: biochemical; conditions: for KMapp of yeast mevalonate kinase: other substrate saturating at 5 mM, 30° C.
T2 construct: 10xHis tag with factor Xa site (pET-16b leader); made in house; host or cells: E. coli BL21(DE3) pLysS
T2 sequence (P07277 1-443): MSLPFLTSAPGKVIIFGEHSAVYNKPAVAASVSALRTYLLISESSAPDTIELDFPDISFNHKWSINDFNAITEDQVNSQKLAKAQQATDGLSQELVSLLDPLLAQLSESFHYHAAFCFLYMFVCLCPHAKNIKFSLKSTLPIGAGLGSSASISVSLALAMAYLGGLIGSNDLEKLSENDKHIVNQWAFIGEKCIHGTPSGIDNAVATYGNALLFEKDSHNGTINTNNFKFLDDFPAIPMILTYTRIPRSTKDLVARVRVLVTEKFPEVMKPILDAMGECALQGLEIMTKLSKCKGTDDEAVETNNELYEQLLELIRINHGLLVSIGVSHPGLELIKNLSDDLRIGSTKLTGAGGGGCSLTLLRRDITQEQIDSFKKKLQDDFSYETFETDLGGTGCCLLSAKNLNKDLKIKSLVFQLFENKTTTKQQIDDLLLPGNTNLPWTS

[8] = target: T3, MVK from the archaeon Methanococcus jannaschii (Methanocaldococcus jannaschii, UniProt Q58487); conditions: Huang et al. 1999; cited from earlier work
T3 sequence (Q58487 1-312): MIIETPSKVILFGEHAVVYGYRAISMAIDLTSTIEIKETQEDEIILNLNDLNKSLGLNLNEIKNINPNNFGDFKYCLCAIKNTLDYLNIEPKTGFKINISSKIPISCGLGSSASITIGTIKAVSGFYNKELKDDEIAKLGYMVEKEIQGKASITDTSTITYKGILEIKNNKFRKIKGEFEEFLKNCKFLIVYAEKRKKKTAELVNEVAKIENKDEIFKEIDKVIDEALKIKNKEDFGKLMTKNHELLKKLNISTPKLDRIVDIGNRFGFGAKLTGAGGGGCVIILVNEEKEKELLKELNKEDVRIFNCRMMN

Molecule: C=C(C)CCOP(=O)(O)O [IP, isopentenyl monophosphate]
- Inhibition of M. mazei MVK by isopentenyl monophosphate [1]: not inhibited

Molecule: C=CC(=C)C [isoprene, 2-methyl-1,3-butadiene]
- limiting oxygen concentration (LOC) ([2]; isoprene, O2, N2, and CO2 mixture at 40° C. and 1 atmosphere): 9.5 vol %
- limiting temperature ([2]; lowest temperature at which combustion can propagate): about −54 °C

Molecule: CCO [ethanol]
- LFL [3]: about 3.3 vol %
- LOC [3]: about 8.7 vol %

Molecule: C[C@@](O)(CCOP(=O)(O)OP(=O)(O)O)CC(=O)O [diphosphomevalonate]
- Inhibition of M. mazei MVK by diphosphomevalonate ([1]; PMK, diphosphomevalonate formed in situ): proceed to completion; also recorded: Neither yeast MVK nor M. mazei MVK was inhibited
- Inhibition of yeast MVK by diphosphomevalonate [4]: not inhibited; also recorded: Neither yeast MVK nor M. mazei MVK was inhibited
- Inhibition of S. pneumoniae MVK by diphosphomevalonate [5]: inhibited

Molecule: CC(C)=CCC/C(C)=C/CC/C(C)=C/CC/C(C)=C/COP(=O)(O)OP(=O)(O)O [GGPP, geranylgeranyl diphosphate]
- Ki for human MVK polypeptide [6]: nanomolar range

Molecule: Nc1ncnc2c1ncn2[C@@H]1O[C@H](COP(=O)(O)OP(=O)(O)OP(=O)(O)O)[C@@H](O)[C@H]1O [ATP, adenosine triphosphate]
- KMapp of yeast mevalonate kinase [7]: 714 ± 49 µM

Molecule: CC(C)=CCC/C(C)=C/COP(=O)(O)OP(=O)(O)O [GPP, geranyl diphosphate]
- Ki for human MVK polypeptide [6]: nanomolar range
- Feedback inhibition of M. jannaschii MVK [8]: feedback inhibited

Molecule: CC(C)=CCC/C(C)=C/CC/C(C)=C/CO[P@@](=O)(O)OP(=O)(O)O (stereo in doubt) [FPP, farnesyl diphosphate]
- Ki for human MVK polypeptide [6]: nanomolar range

Molecule: CC(O)(CCO)CC(=O)O (stereo not shown) [mevalonate]
- KMapp of yeast mevalonate kinase [7]: 131 ± 8 µM

Molecule: C=C(C)CCOP(=O)(O)OP(=O)(O)O [IPP, isopentenyl diphosphate]
- Inhibition of M. mazei MVK by isopentenyl monophosphate [1]: not inhibited

B1: yeast mevalonate kinase: mevalonate kinase from Saccharomyces cerevisiae, expressed in E. coli and purified to >95% (protein, UniProt P07277 1-443, looked up)
Mevalonate kinase: MSLPFLTSAPGKVIIFGEHSAVYNKPAVAASVSALRTYLLISESSAPDTIELDFPDISFNHKWSINDFNAITEDQVNSQKLAKAQQATDGLSQELVSLLDPLLAQLSESFHYHAAFCFLYMFVCLCPHAKNIKFSLKSTLPIGAGLGSSASISVSLALAMAYLGGLIGSNDLEKLSENDKHIVNQWAFIGEKCIHGTPSGIDNAVATYGNALLFEKDSHNGTINTNNFKFLDDFPAIPMILTYTRIPRSTKDLVARVRVLVTEKFPEVMKPILDAMGECALQGLEIMTKLSKCKGTDDEAVETNNELYEQLLELIRINHGLLVSIGVSHPGLELIKNLSDDLRIGSTKLTGAGGGGCSLTLLRRDITQEQIDSFKKKLQDDFSYETFETDLGGTGCCLLSAKNLNKDLKIKSLVFQLFENKTTTKQQIDDLLLPGNTNLPWTS
- turnover number (kcat) ([7]; yeast mevalonate kinase): 38 ± 5 s⁻¹
